Patent publication US10758534B2 (Vertex Pharmaceuticals Incorporated, priority 2014, dated 2020)

Biological target: T1, F508del (Homo sapiens, UniProt P13569, DEL508-508)
T1 construct: expressed in transfected cells
Assay: Protocol 2: FRET membrane potential optical assay (VIPR), identification of correction compounds
Assay type: cell-based
Details: Table 3; compounds of Table 1 as modulators of CFTR activity; protocol not stated
Procedure, shortened: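 Correction of the F508del trafficking defect is scored as forskolin (10 μM)/genistein (20 μM)-stimulated Cl^− efflux in NIH3T3 mouse fibroblasts after a 16 hr, 37° C. compound exposure. Depolarization was followed optically using voltage-sensing FRET dyes.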

T1 sequence (P13569 with tags, fused parts or gaps DEL508-508): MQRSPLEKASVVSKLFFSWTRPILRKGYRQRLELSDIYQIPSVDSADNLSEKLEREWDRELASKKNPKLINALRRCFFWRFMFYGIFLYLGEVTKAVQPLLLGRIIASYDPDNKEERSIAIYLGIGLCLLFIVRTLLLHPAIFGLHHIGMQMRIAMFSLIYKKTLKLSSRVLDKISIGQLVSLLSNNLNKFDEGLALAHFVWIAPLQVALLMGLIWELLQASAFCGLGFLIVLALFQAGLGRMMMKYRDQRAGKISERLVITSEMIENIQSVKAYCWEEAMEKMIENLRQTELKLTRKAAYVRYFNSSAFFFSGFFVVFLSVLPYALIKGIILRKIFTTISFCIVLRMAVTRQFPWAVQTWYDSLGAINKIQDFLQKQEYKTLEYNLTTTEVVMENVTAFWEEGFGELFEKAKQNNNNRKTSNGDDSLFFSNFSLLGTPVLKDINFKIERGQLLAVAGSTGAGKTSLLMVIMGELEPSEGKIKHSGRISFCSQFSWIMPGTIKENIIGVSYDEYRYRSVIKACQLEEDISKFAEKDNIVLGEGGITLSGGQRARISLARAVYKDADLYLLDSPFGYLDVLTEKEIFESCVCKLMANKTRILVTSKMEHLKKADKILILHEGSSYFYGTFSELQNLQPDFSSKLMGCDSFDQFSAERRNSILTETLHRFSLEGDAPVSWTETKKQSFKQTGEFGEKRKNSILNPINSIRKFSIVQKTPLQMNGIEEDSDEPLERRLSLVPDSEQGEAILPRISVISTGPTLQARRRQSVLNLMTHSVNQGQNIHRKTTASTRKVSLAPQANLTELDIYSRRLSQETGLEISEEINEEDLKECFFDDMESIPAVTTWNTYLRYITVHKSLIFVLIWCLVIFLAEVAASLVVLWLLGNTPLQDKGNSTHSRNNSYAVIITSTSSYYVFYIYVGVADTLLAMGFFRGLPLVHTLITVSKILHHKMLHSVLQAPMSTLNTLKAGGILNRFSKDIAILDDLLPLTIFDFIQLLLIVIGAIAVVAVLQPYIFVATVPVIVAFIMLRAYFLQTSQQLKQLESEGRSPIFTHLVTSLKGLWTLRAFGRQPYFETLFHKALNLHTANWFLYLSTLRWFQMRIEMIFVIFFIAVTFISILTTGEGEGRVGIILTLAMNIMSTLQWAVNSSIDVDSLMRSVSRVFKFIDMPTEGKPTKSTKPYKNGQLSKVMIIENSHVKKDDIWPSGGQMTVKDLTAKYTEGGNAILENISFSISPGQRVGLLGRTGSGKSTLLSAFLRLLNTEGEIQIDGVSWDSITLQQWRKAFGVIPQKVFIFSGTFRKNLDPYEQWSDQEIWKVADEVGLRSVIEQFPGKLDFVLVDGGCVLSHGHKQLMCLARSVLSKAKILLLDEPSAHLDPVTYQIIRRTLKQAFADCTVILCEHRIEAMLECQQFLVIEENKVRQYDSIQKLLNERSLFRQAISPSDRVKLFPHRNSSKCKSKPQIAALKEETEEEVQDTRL

SMILES | EC30
CC(C)Oc1ccc(-c2ccc(C(=O)NS(=O)(=O)c3cccc(N)n3)c(N3CCCC3c3ccccc3)n2)cn1 (stereo not shown) [Compound 509, N-[(6-amino-2-pyridyl)sulfonyl]-6-(6-isopropoxy-3-pyridyl)-2-(2-phenylpyrrolidin-1-yl)pyridine-3-carboxamide] | +++ (“+++” means <3 uM)
COc1cccc(S(=O)(=O)NC(=O)c2ccc(-c3cc(F)cc(OCC(C)C)c3)nc2N2CCC(C)(C)CC2)c1 [Compound 510, 2-(4,4-dimethyl-1-piperidyl)-6-(3-fluoro-5-isobutoxy-phenyl)-N-(3-methoxyphenyl)sulfonyl-pyridine-3-carboxamide] | +++ (“+++” means <3 uM)
CC(C)COc1cccc(-c2ccc(C(=O)NS(=O)(=O)c3ccc[nH]c3=O)c(N3[C@H](C)CC[C@@H]3C)n2)c1 [Compound 511, 2-[(2S,5R)-2,5-dimethylpyrrolidin-1-yl]-6-(3-isobutoxyphenyl)-N-[(2-oxo-1H-pyridin-3-yl)sulfonyl]pyridine-3-carboxamide] | +++ (“+++” means <3 uM)
COc1ccc(S(=O)(=O)NC(=O)c2ccc(C(C)(C)C)nc2-c2ccc(C)cc2)cn1 [Compound 512, 6-tert-butyl-N-[(6-methoxy-3-pyridyl)sulfonyl]-2-(p-tolyl)pyridine-3-carboxamide] | ++ (“++” means between 3 uM and 10 uM)
Cc1cc(C)c(Oc2nc(-c3ccc(C)nc3)ccc2C(=O)NS(=O)(=O)c2cccc(N)n2)c(C)c1 [Compound 513, N-[(6-amino-2-pyridyl)sulfonyl]-6-(6-methyl-3-pyridyl)-2-(2,4,6-trimethylphenoxy)pyridine-3-carboxamide] | ++ (“++” means between 3 uM and 10 uM)
Cc1cc(C)c(Oc2nc(-c3ccncc3F)ccc2C(=O)NS(=O)(=O)c2cccc(N)n2)c(C)c1 [Compound 514, N-[(6-amino-2-pyridyl)sulfonyl]-6-(3-fluoro-4-pyridyl)-2-(2,4,6-trimethylphenoxy)pyridine-3-carboxamide] | + (“+” means greater than 10 uM)
Cc1cc(C)c(Oc2nc(C(C)(C)C)ccc2C(=O)N=S(N)(=O)c2cccc(N)n2)c(C)c1 (stereo not shown) [Compound 515, N-[amino-(6-amino-2-pyridyl)-oxo-$1^6-sulfanylidene]-6-tert-butyl-2-(2,4,6-trimethylphenoxy)pyridine-3-carboxamide] | +++ (“+++” means <3 uM)
CC(C)COc1cc(F)cc(-c2ccc(C(=O)NS(=O)(=O)c3cccc(N)n3)c(N(C)C(C)C3CC3)n2)c1 (stereo not shown) [Compound 516, N-[(6-amino-2-pyridyl)sulfonyl]-2-[1-cyclopropylethyl(methyl)amino]-6-(3-fluoro-5-isobutoxy-phenyl)pyridine-3-carboxamide] | +++ (“+++” means <3 uM)
CCOc1ccc(-c2ccc(C(=O)NS(=O)(=O)c3ccc[nH]c3=O)c(Oc3ccc(C)cc3C)n2)cc1 [Compound 517, 2-(2,4-dimethylphenoxy)-6-(4-ethoxyphenyl)-N-[(2-oxo-1H-pyridin-3-yl)sulfonyl]pyridine-3-carboxamide] | ++ (“++” means between 3 uM and 10 uM)
Cc1cc(C)c(Oc2nc(-c3ccc(F)cc3)ccc2C(=O)NS(=O)(=O)c2cc[nH]n2)c(C)c1 [Compound 518, 6-(4-fluorophenyl)-N-(1H-pyrazol-3-ylsulfonyl)-2-(2,4,6-trimethylphenoxy)pyridine-3-carboxamide] | +++ (“+++” means <3 uM)
CC(C)COc1cc(F)cc(-c2ccc(C(=O)NS(=O)(=O)c3ccn[nH]3)c(N3CCCC4(COC4)C3)n2)c1 [Compound 519, 6-(3-fluoro-5-isobutoxy-phenyl)-2-(2-oxa-8-azaspiro[3.5]nonan-8-yl)-N-(1H-pyrazol-5-ylsulfonyl)pyridine-3-carboxamide] | ++ (“++” means between 3 uM and 10 uM)
CC1CN(c2nc(-c3ccc(OC(C)C)nc3)ccc2C(=O)NS(=O)(=O)c2cccc(N)n2)CC(C)(C)C1 (stereo not shown) [Compound 520, N-[(6-amino-2-pyridyl)sulfonyl]-6-(6-isopropoxy-3-pyridyl)-2-(3,3,5-trimethyl-1-piperidyl)pyridine-3-carboxamide] | +++ (“+++” means <3 uM)
CC(C)Oc1ccc(-c2ccc(C(=O)NS(=O)(=O)c3cccc(N)n3)c(N3CC4CCC3C4)n2)cn1 (stereo not shown) [Compound 521, N-[(6-amino-2-pyridyl)sulfonyl]-2-(3-azabicyclo[2.2.1]heptan-3-yl)-6-(6-isopropoxy-3-pyridyl)pyridine-3-carboxamide] | ++ (“++” means between 3 uM and 10 uM)
CCCC1CCCN(c2nc(-c3ccc(OC(C)C)nc3)ccc2C(=O)NS(=O)(=O)c2cccc(N)n2)C1 (stereo not shown) [Compound 522, N-[(6-amino-2-pyridyl)sulfonyl]-6-(6-isopropoxy-3-pyridyl)-2-(3-propyl-1-piperidyl)pyridine-3-carboxamide] | +++ (“+++” means <3 uM)
CC(C)CNc1cc(-c2ccc(C(=O)NS(=O)(=O)c3cccc(N)n3)c(N3CC(C)CC3(C)C)n2)ccn1 (stereo not shown) [Compound 523, N-[(6-amino-2-pyridyl)sulfonyl]-6-[2-(isobutylamino)-4-pyridyl]-2-(2,2,4-trimethylpyrrolidin-1-yl)pyridine-3-carboxamide] | +++ (“+++” means <3 uM)
COc1ncccc1S(=O)(=O)NC(=O)c1ccc(-c2ccc(C)cc2)nc1-c1ccc(C)cc1 [Compound 524, N-[(2-methoxy-3-pyridyl)sulfonyl]-2,6-bis(p-tolyl)pyridine-3-carboxamide] | ++ (“++” means between 3 uM and 10 uM)
Cc1cc(C)c(Oc2nc(-c3cccc4c3OCO4)ccc2C(=O)NS(=O)(=O)c2ccc[nH]c2=O)c(C)c1 [Compound 525, 6-(1,3-benzodioxol-4-yl)-N-[(2-oxo-1H-pyridin-3-yl)sulfonyl]-2-(2,4,6-trimethylphenoxy)pyridine-3-carboxamide] | ++ (“++” means between 3 uM and 10 uM)
COc1ncccc1-c1ccc(C(=O)NS(=O)(=O)c2cccc(N)n2)c(N2CC(C)CC2(C)C)n1 (stereo not shown) [Compound 526, N-[(6-amino-2-pyridyl)sulfonyl]-6-(2-methoxy-3-pyridyl)-2-(2,2,4-trimethylpyrrolidin-1-yl)pyridine-3-carboxamide] | +++ (“+++” means <3 uM)
CC(C)COc1cc(F)cc(-c2ccc(C(=O)NS(=O)(=O)c3cccc(N)n3)c(N3CC4(CCC4)C3)n2)c1 [Compound 527, N-[(6-amino-2-pyridyl)sulfonyl]-2-(6-azaspiro[3.3]heptan-6-yl)-6-(3-fluoro-5-isobutoxy-phenyl)pyridine-3-carboxamide] | +++ (“+++” means <3 uM)
CC(C)COc1cc(F)cc(-c2ccc(C(=O)NS(=O)(=O)c3ccn[nH]3)c(N3CCC(C)C(C)C3)n2)c1 (stereo not shown) [Compound 528, 2-(3,4-dimethyl-1-piperidyl)-6-(3-fluoro-5-isobutoxy-phenyl)-N-(1H-pyrazol-5-ylsulfonyl)pyridine-3-carboxamide] | +++ (“+++” means <3 uM)
CC(C)(C)c1ccc(C(=O)NS(=O)(=O)c2cccc(N)n2)c(C2=CCCC2)n1 [Compound 529, N-[(6-amino-2-pyridyl)sulfonyl]-6-tert-butyl-2-(cyclopenten-1-yl)pyridine-3-carboxamide] | ++ (“++” means between 3 uM and 10 uM)
CCC1(C)CCCN(c2nc(-c3cc(F)cc(OCC(C)C)c3)ccc2C(=O)NS(=O)(=O)c2cccc(N)n2)C1 (stereo not shown) [Compound 530, N-[(6-amino-2-pyridyl)sulfonyl]-2-(3-ethyl-3-methyl-1-piperidyl)-6-(3-fluoro-5-isobutoxy-phenyl)pyridine-3-carboxamide] | +++ (“+++” means <3 uM)
